Measurements taken from US8618299B2, “Azinone-substituted azapolycycle MCH-1 antagonists, methods of making, and use thereof” (Albany Molecular Research, Inc., priority 2009, dated 2013).
pKi: −log10 of the molar value. Structures can show the parent of a compound that is named as a salt.

Columns and labels:
human MCH-1 receptor = human MCH-1 receptor (Homo sapiens (Human), UniProt Q99705); test: Binding assay for human melanin-concentrating hormone (MCH1) receptor; conditions: membranes from CHO-K1 cells expressing human MCH1 receptor, 1.4 nM [3H]-labeled radioligand, 60 min at 25° C., pH 7.4, Ki from Cheng Prusoff equation
human MCH-1 receptor, sequence (Q99705 whole entry): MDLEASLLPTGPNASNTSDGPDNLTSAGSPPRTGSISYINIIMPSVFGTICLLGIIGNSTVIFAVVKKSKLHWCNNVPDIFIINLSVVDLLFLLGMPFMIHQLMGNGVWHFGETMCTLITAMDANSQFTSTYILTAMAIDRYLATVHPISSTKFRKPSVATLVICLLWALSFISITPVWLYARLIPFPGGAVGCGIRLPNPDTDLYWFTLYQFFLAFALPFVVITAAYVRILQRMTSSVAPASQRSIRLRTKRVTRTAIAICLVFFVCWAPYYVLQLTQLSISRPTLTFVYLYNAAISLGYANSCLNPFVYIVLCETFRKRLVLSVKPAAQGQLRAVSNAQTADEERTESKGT
Procedure: Binding Assay for Human Melanin-Concentrating Hormone (MCH1) Receptor
Evaluation of the affinity of compounds for the human MCH-1 receptor was accomplished using 4-(3,4,5-tritritiumbenzyloxy)-1-(1-(2-(pyrrolidin-1-yl)ethyl)-1H-indazol-5-yl)pyridin-2(1H)-one and membranes prepared from stable CHO-K1 cells expressing the human MCH1 receptor obtained from Euroscreen (Batch 1138). Cell membrane homogenates (8.92 μg protein) were incubated for 60 min at 25° C. with 1.4 nM of the [^3H]-labeled compound in the absence or presence of the test compound in 50 mM Tris-HCl buffer, pH 7.4. Nonspecific binding was determined in the presence of 50 μM 1-(5-(4-cyanophenyl)bicyclo[3.1.0]hexan-2-yl)-3-(4-fluoro-3-(trifluoromethyl)phenyl)-1-(3-(4-methylpiperazin-1-yl)propyl)urea. Following incubation, the samples were filtered rapidly under vacuum through Skatron 11731 filters, pre-soaked in 0.5% polyethylenimine, and washed with ice-cold 50 mM Tris-HCl buffer, pH 7.4, (wash setting 9,9,0) using a Skatron cell harvester. The filters were counted for radioactivity in a liquid scintillation counter (Tri-Carb 2100TR, Packard) using a scintillation cocktail (Ultima Gold MV, Perkin Elmer).
The results are expressed as a percent inhibition of the control radioligand specific binding. The IC50 value (concentration causing a half-maximal inhibition of control specific binding) and Hill coefficient (nH) were determined by non-linear regression analysis of the competition curve using Hill equation curve fitting. The inhibition constant (Ki) was calculated from the Cheng Prusoff equation: (Ki=IC50/(1+(L/KD)), where L=concentration of radioligand in the assay, and KD=affinity of the radioligand for the receptor.

SMILES | melting point | pKi (human MCH-1 receptor; Hydrochloride) | pKi (human MCH-1 receptor)
Cc1ccc(COc2ccn(-c3ccc4c5c(n(C)c4c3)CC3CCCCN3C5)c(=O)c2)cn1 (stereo not drawn) (as salt: hydrochloride) [Example 33, 1-(5-Methyl-5,6,6a,7,8,9,10,12-octahydroindolo[2,3-b]quinolizin-3-yl)-4-((6-methylpyridin-3-yl)methoxy)pyridin-2(1H)-one Dihydrochloride] | 270 to 272 °C | – | –
Cc1ccc(-c2ccn(-c3ccc4c5c(n(C)c4c3)CC3CCCCN3C5)c(=O)c2)cn1 (stereo not drawn) (as salt: hydrochloride) [Example 35, 1-(5-Methyl-5,6,6a,7,8,9,10,12-octahydroindolo[2,3-b]quinolizin-3-yl)-4-(6-methylpyridin-3-yl)pyridin-2(1H)-one Dihydrochloride] | 256 to 260 °C | – | –
Cn1c2c(c3ccc(-n4ccc(OCc5ccc(F)cn5)cc4=O)cc31)CN1CCCCC1C2 (stereo not drawn) (as salt: hydrochloride) [Example 37, 4-((5-Fluoropyridin-2-yl)methoxy)-1-(5-methyl-5,6,6a,7,8,9,10,12-octahydroindolo[2,3-b]quinolizin-3-yl)pyridin-2(1H)-one Dihydrochloride] | 235 to 238 °C | – | –
Cn1c2c(c3ccc(-n4ccc(OCc5ccc(F)cn5)cc4=O)cc31)CCN1CCCC21 (stereo not drawn) (as salt: hydrochloride) [Example 43, 4-((5-Fluoropyridin-2-yl)methoxy)-1-(11-methyl-2,3,5,6,11,11b-hexahydro-1H-indolizino[8,7-b]indol-9-yl)pyridin-2(1H)-one Dihydrochloride] | 290 to 293 °C | – | –
Cl.Cn1c2c(c3ccc(-n4ccc(OCc5ccc(F)cn5)cc4=O)cc31)CN1CCCCC1C2 (single isomer, unassigned; (-)) [Example 38, (−)-4-((5-Fluoropyridin-2-yl)methoxy)-1-(5-methyl-5,6,6a,7,8,9,10,12-octahydroindolo[2,3-b]quinolizin-3-yl)pyridin-2(1H)-one Hydrochloride] | 270 to 280 °C | 7.72 | –
Cl.Cn1c2c(c3ccc(-n4ccc(-c5ccc(C(F)(F)F)cn5)cc4=O)cc31)CCN1CCCCC21 (stereo not drawn) [Example 6, 1-(12-Methyl-1,2,3,4,6,7,12,12b-octahydroindolo[2,3-a]quinolizin-10-yl)-4-(5-(trifluoromethyl)pyridin-2-yl)pyridin-2(1H)-one Hydrochloride] | 280 to 284 °C | – | 6.32
Cl.Cn1c2c(c3ccc(-n4ccc(-c5ccc(Cl)cn5)cc4=O)cc31)CCN1CCCCC21 (stereo not drawn) [Example 9, 4-(5-Chloropyridin-2-yl)-1-(12-methyl-1,2,3,4,6,7,12,12b-octahydroindolo[2,3-a]quinolizin-10-yl)pyridin-2(1H)-one Hydrochloride] | 210 to 213 °C | – | 5.76
Cl.Cn1c2c(c3ccc(-n4ccc(-c5ccc(C(F)(F)F)nc5)cc4=O)cc31)C1CCCN1CC2 (stereo not drawn) [Example 14, 1-(7-Methyl-2,3,5,6,7,11c-hexahydro-1H-indolizino[7,8-b]indol-9-yl)-4-(6-(trifluoromethyl)pyridin-3-yl)pyridin-2(1H)-one Hydrochloride] | 235 to 240 °C | – | 6.82
Cl.Cn1c2c(c3ccc(-n4ccc(OCc5ccc(C(F)(F)F)nc5)cc4=O)cc31)C1CCCN1CC2 (stereo not drawn) [Example 18, 1-(7-Methyl-2,3,5,6,7,11c-hexahydro-1H-indolizino[7,8-b]indol-9-yl)-4-((6-(trifluoromethyl)pyridin-3-yl)methoxy)pyridin-2(1H)-one Hydrochloride] | 250 to 254 °C | – | 7.92
Cl.O=c1cc(-c2ccc(C(F)(F)F)cc2)ccn1-c1ccc2c3c([nH]c2c1)CCN1CCCC31 (stereo not drawn) [Example 26, 1-(2,3,5,6,7,11c-Hexahydro-1H-indolizino[7,8-b]indol-9-yl)-4-(4-(trifluoromethyl)phenyl)pyridin-2(1H)-one Hydrochloride] | 280 to 290 °C | – | 7.92

The next lines start with the values.

melting point | pKi (human MCH-1 receptor; Hydrochloride) | pKi (human MCH-1 receptor) | SMILES
227 to 230 °C | 7.91 | – | Cl.Cn1c2c(c3ccc(-n4ccc(OCc5ccccc5)cc4=O)cc31)CCN1CCCC21 (single isomer, unassigned; (+)) [Example 4, (+)4-(Benzyloxy)-1-(11-methyl-2,3,5,6,11,11b-hexahydro-1H-indolizino[8,7-b]indol-9-yl)pyridin-2(1H)-one Hydrochloride]
224 to 228 °C | 7.76 | – | Cl.Cn1c2c(c3ccc(-n4ccc(OCc5ccccc5)cc4=O)cc31)CCN1CCCC21 (single isomer, unassigned; (-)) [Example 3, (−)4-(Benzyloxy)-1-(11-methyl-2,3,5,6,11,11b-hexahydro-1H-indolizino[8,7-b]indol-9-yl)pyridin-2(1H)-one Hydrochloride]
167 to 170 °C | 7.83 | – | Cl.Cn1c2c(c3ccc(-n4ccc(OCc5ccccc5)cc4=O)cc31)CCN1CCCC21 (stereo not drawn) [Example 2, 4-(Benzyloxy)-1-(11-methyl-2,3,5,6,11,11b-hexahydro-1H-indolizino[8,7-b]indol-9-yl)pyridin-2(1H)-one Hydrochloride]
210 to 213 °C | – | 7.51 | Cl.Cn1c2c(c3ccc(-n4ccc(OCc5ccccc5)cc4=O)cc31)CCN1CCCCC21 (stereo not drawn) [Example 5, 4-(Benzyloxy)-1-(12-methyl-1,2,3,4,6,7,12,12b-octahydroindolo[2,3-a]quinolizin-10-yl)pyridin-2(1H)-one Hydrochloride]
200 °C (dec.) | – | 7.35 | Cl.Cn1c2c(c3ccc(-n4ccc(OCc5ccc(F)cn5)cc4=O)cc31)CCN1CCCCC21 (stereo not drawn) [Example 7, 4-((5-Fluoropyridin-2-yl)methoxy)-1-(12-methyl-1,2,3,4,6,7,12,12b-octahydroindolo[2,3-a]quinolizin-10-yl)pyridin-2(1H)-one Hydrochloride]
204 to 208 °C | – | 7.70 | Cl.Cn1c2c(c3ccc(-n4ccc(OCc5ccc(Cl)cn5)cc4=O)cc31)CCN1CCCCC21 (stereo not drawn) [Example 8, 4-((5-Chloropyridin-2-yl)methoxy)-1-(12-methyl-1,2,3,4,6,7,12,12b-octahydroindolo[2,3-a]quinolizin-10-yl)pyridin-2(1H)-one Hydrochloride]
255 to 258 °C | – | 8.09 | Cl.Cn1c2c(c3ccc(-n4ccc(OCc5ccccc5)cc4=O)cc31)CN1CCCC1C2 (stereo not drawn) [Example 11, 4-(Benzyloxy)-1-(10-methyl-2,3,5,10,11,11a-hexahydro-1H-indolizino[7,6-b]indol-8-yl)pyridin-2(1H)-one Hydrochloride]
270 to 273 °C | – | 8.15 | Cl.O=c1cc(OCc2ccccc2)ccn1-c1ccc2c3c([nH]c2c1)CC1CCCN1C3 (stereo not drawn) [Example 16, 4-(Benzyloxy)-1-(2,3,5,10,11,11a-hexahydro-1H-indolizino[7,6-b]indol-8-yl)pyridin-2(1H)-one Hydrochloride]
260 to 264 °C | – | 7.92 | Cl.Cn1c2c(c3ccc(-n4ccc(OCc5ccccc5)cc4=O)cc31)C1CCCN1CC2 (stereo not drawn) [Example 17, 4-(Benzyloxy)-1-(7-methyl-2,3,5,6,7,11c-hexahydro-1H-indolizino[7,8-b]indol-9-yl)pyridin-2(1H)-one Hydrochloride]
250 to 253 °C | – | 7.68 | Cl.Cn1c2c(c3ccc(-n4ccc(OCc5ccccc5)cc4=O)cc31)C1CCCCN1CC2 (stereo not drawn) [Example 22, 4-(Benzyloxy)-1-(8-methyl-1,2,3,4,6,7,8,12c-octahydroindolo[3,2-a]quinolizin-10-yl)pyridin-2(1H)-one Hydrochloride]
